Like-named read-outs stand apart in the source and are kept apart here.
Key:
rat RabGGT = biological target: T1, rat RabGGT (Rattus norvegicus, UniProt Q08602+Q08603); assay: RabGGT filter binding assay: transfer of (3H)geranylgeranyl from 3H-GGPP to recombinant Rab3A; type: biochemical; conditions: for IC90/IC50: RabGGT inhibition
T1 construct: purchased Calbiochem 345855; host or cells: Sf9/baculovirus
T1 sequence (Q08602 1-567): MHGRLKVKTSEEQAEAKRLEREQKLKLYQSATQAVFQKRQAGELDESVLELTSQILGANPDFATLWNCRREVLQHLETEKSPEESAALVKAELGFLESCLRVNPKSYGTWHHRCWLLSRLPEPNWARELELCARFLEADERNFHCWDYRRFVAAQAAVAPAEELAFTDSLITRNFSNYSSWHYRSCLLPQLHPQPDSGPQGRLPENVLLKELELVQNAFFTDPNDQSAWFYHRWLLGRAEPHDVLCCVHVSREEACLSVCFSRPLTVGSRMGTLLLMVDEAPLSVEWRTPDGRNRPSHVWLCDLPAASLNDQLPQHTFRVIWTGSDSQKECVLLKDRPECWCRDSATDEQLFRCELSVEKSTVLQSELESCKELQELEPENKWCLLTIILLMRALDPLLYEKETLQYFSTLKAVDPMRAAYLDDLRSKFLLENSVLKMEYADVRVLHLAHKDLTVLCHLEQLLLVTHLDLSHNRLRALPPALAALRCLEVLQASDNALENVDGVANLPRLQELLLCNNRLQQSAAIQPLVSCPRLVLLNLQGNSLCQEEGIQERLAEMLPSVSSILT
T1 sequence (Q08603 1-331): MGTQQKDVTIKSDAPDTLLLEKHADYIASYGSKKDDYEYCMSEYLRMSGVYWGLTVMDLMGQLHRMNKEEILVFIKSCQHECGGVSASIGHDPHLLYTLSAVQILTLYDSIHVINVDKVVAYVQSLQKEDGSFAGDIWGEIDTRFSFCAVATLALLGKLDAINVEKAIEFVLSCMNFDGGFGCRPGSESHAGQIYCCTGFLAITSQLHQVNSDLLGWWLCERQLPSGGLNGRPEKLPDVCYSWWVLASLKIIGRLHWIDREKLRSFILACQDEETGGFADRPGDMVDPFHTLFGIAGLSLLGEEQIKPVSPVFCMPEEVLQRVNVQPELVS
From the text: The effect of compounds 7A through 7T on RabGGT activity was quantified using a filter binding assay that measures the transfer of (3H) geranylgeranyl groups (GG) from all-trans-(3H)geranylgeranyl pyrophosphate (3H-GGPP) to recombinant Rab3A protein (Shen & Seabra, 1996, JBC, 271 :3692; Armstrong et al., 1996, Methods in Enzymology 257:30). Modifications to published protocols are noted explicitly below.
Recombinant rat RabGGT, expressed using the Sf9/baculovirus system, was purchased from Calbiochem (cat. no. 345855). Recombinant unprenylated human Rab3A was obtained from Panvera.(cat. no. P2173). Human REβ-1, expressed in Sf9 cells, was obtained from Calbiochem (cat. no. 554000). Tritium labeled geranylgeranyl pyrophosphate was purchased from Amersham Pharmacia Biotech (15 Ci/mmol). Unlabeled GGPP was purchased from Sigma (cat. no. G-6025).
The reaction buffer contained 50 mM HEPES pH7.4, 5 mM MgCl2, 1 mM DTT, 1 mM Nβ-40. Solutions of RabGGT, Rab3A, REP-1, and GGPP were prepared in this reaction buffer. Final protein concentrations in the reaction mixture were modified from the published protocols, with the standard reaction mixture containing 2 μM Rab3A, 0.2 μM REP-1, 5 μM unlabeled GGPP, 0.5 μM labeled GGPP, and 10-50 nM RabGGT in a total volume of 20 μl. The specific activity of (3H)GGPP used in the assay was 3000 dpm/pmol.
Compounds were prepared as 50 mM stocks in DMSO and diluted to give an appropriate concentration for the assay as a 20% DMSO stock. 2 μl of the diluted compound stock was added to a 20 μl reaction to give a final DMSO concentration of 2% in the assay.
The order of addition of reagents was altered from the published protocols. Reaction mixtures were prepared by sequentially adding Rab3A and REP-1 proteins to the reaction buffer, followed by compound and RabGGT enzyme to a volume of 18 μl. Reactions were initiated by the addition of 2 μl of a solution that contained unlabeled and labeled GGPP. After a 30 minute incubation at 37° C., 1 ml of stop solution (1 volume of concentrated HCl acid with 9 volumes of ethanol) was added and mixed. The solution was then incubated at room temperature for 1 hour to completely precipitate proteins.
The precipitate was collected by vacuum filtration using a vacuum filtration manifold (Millipore model 1225) onto 25 mm GF/A filters (Whatman) that were prewetted with ethanol. The tubes were rinsed twice with 1 ml ethanol which was also poured over the filters. Each filter was subsequently washed three times with 2 mls of ethanol per wash, dried under vacuum, and then put in scintillation vials. Four milliliters of scintillation fluid was added and the radioactivity was quantified on a scintillation counter. Several types of blank reactions were conducted including withholding the enzyme, the substrate, or the accessory protein REP-1, or replacing the compound solution with a 20% DMSO solution. For the substrate titration experiment, the equimolar amounts of Rab3A and REP-1 were mixed and preincubated for 30 min at room temperature before addition of the enzyme.
The data was analyzed by non-linear regression analysis methods using the program PRIZM (GraphPad Software, Inc.). Inhibition constants were obtained by analyzing the data using the one site competition equation provided by the software. FIG. 7 presents a typical data series obtained for compound 7B using these methods.

[1] = biological target: Farnesyl Transferase (FT) (Homo sapiens, UniProt P49354+P49356); assay: Biochemical assay for inhibition of farnesyl transferase (FT)
Description: Biochemical assays for inhibition of FT were performed as described by Mann et al. (1995, Drug Dev. Res. 34: 121) with the modifications described by Ding et al. (1999, J. Med. Chem., 42:5241)

[2] = system: HCT-116 human colon tumor cells; assay: Compound-induced apoptosis in HCT-116 human colon tumor cells (microscopy for morphological markers); type: cell-based
Description: HCT-116 human colon tumor cells obtained from the American Type Culture Collection (ATCC) were grown in McCoy's 5A culture medium with 10% heat inactivated FBS, 1× penicillin/streptomycin, and 25 mM HEPES, in an incubator maintained at 37° C. with CO2 at 6-7% and humidity at 95%. Cells were treated with compounds using a dose range from 0.04 μM to 100 μM. After 48 hours they were examined by microscopy for signs of cell rounding, vaccuolation, and nuclear condensation. These are morphological markers associated with apoptosis, and are consistent with results obtained by performing an assay for nucleosomal DNA, or a TdT-mediated dUTP nick end labeling (TUNEL) assay.
The concentrations cited are the minimal concentration required to induce these morphological changes in 50% of the treated cells.

[3] = recombinant rat RabGGT, Rab3A, REP-1, 30 minute at 37° C.
[4] = HCT-116, 48 h, HCT116 cells, 48 hours, minimal concentration inducing apoptotic morphological changes in 50% of treated cells, read-out: 50% APOPTOTIC
[5] = HCT-116, minimum concentration required to achieve apoptosis of 50% of the HCT116 cells (Table 7), read-out: HCT116 50% apoptosis
[6] = HCT-116, minimum concentration required to achieve apoptosis of 50% of the HCT116 cells (Table 8), read-out: HCT116 50% apoptosis

Row | IC90/IC50 (rat RabGGT) | IC50 (rat RabGGT; Table 7) [nM] | IC50 (rat RabGGT; [3]) [nM] | IC90 (rat RabGGT; [3]) [nM] | IC50 [1] [nM] | IC90 [1] [nM] | EC50 [2, 4] [nM] | EC50 [2, 5] [nM] | EC50 [2, 6] [nM] | EC50 ([2]; HCT-116, 48 h, HCT-116 cells, 48 hours, read-out: minimum effective concentration (apoptosis in 50% of cells)) [nM] | Compound
1 | 5 | 12 | 12 | 58 | 0.8 | 7 | 2500 | 2500 | 2500 |  | Cn1cncc1CN1C[C@@H](Cc2ccccc2)N(S(=O)(=O)c2cccs2)Cc2cc(C#N)ccc21 [Compound 7J]
2 | 9 | 21 | 21 | 199 | 7.8 | 110 | 370 | 370 | 370 |  | N#Cc1ccc2c(c1)CN(S(=O)(=O)N1CCCCC1)[C@H](Cc1ccccc1)CN2Cc1cnc[nH]1 [Compound 7B]
3 | 8 | 36 | 36 | 295 | 2.4 | 30 | 3700 | 3300 | 3300 |  | COc1ccc(S(=O)(=O)N2Cc3cc(C#N)ccc3N(Cc3cnc[nH]3)C[C@H]2Cc2ccccc2)cc1 [Compound 7A]
4 | 6 | 16 | 16 | 93 | 1.4 | 11 | 40 | 40 | 40 | 40 | COc1ccc(S(=O)(=O)N2Cc3cc(C#N)ccc3N(Cc3cncn3C)C[C@H]2Cc2ccccc2)cc1 [Compound 7I]

Row | Compound | IC90/IC50 (rat RabGGT) | IC50 (rat RabGGT; Table 7) [nM] | IC50 (rat RabGGT; [3]) [nM] | IC90 (rat RabGGT; [3]) [nM] | IC50 [1] [nM] | IC90 [1] [nM] | EC50 [2, 4] [nM] | EC50 [2, 5] [nM] | EC50 [2, 6] [nM] | EC50 ([2]; HCT-116, 48 h, HCT-116 cells, 48 hours, read-out: minimum effective concentration (apoptosis in 50% of cells)) [nM]
5 | CCCS(=O)(=O)N1Cc2cc(C#N)ccc2N(Cc2cnc[nH]2)C[C@H]1Cc1ccccc1 [Compound 7H] | 5 | 21 | 21 | 115 | 4.1 | 360 | 370 | 370 | 370 | 
